From patent US20060235084A1, “PEG-polyacetal diblock and triblock copolymers and pharmaceutical compositions” (priority 2005, published 2006)

Assay: In vitro release of paclitaxel from triblock copolymer gel into PBS release media
Assay type: physicochemical
Conditions: 23% by weight aqueous triblock copolymer of Example 1, paclitaxel approx. 2.0 mg/ml; PBS pH 7.4 with 2.4% Tween-80 and 4% Cremophor EL, 37° C.; HPLC
Description: To a 23% by weight aqueous solution of the triblock copolymer of Example 1 is added sufficient paclitaxel to provide approximately 2.0 mg/ml of drug. A 2 ml sample of this solution is put onto a watchglass and equilibrated at 37° C. Since the temperature is greater than the gelation temperature of the copolymer, a gel formed on the watchglass. The watchglass is placed in a 200 ml beaker containing release media comprised of 150 ml of PBS (pH 7.4) containing 2.4% by weight Tween-80 and 4% by weight Cremophor EL equilibrated at 37° C. The solution in the beaker was stirred, and the top of the beaker is sealed to prevent evaporation. The whole assembly was placed into an incubator at 37° C. The release study is performed in triplicate. At different time periods a 5 ml aliquot of the release media was taken and analyzed for […]. The PBS solution was replaced with fresh PBS after each aliquot removal. Samples were collected at 1, 2, 4, 8, 18, and 24 hours, and thereafter at 24 hour intervals, and analyzed by HPLC. The release profile of […] from the gel is determined. The gel formulation provides excellent control over the release of the paclitaxel for approximately 50 days.

duration of controlled release from the gel formulation: approximately 50 days
Compound: CC(=O)O[C@H]1C(=O)[C@@]2(C)[C@H]([C@H](OC(=O)c3ccccc3)[C@]3(O)C[C@H](OC(=O)[C@H](O)[C@@H](NC(=O)c4ccccc4)c4ccccc4)C(C)=C1C3(C)C)[C@]1(OC(C)=O)CO[C@@H]1C[C@@H]2O [paclitaxel]
